In US9187472B2 (AbbVie Inc., priority 2012, dated 2015) one finds IC50 data, which are given here for 33 compounds.

Each structure is given as a SMILES string.

This experiment concerns PC3 cells. Put plainly: NAMPT Cell Proliferation Assay. The format is cell-based. The settings on record: Homo sapiens, PC-3, 120 h, 5 days incubation, cell viability by Cell Titer Glo. In outline: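 Following overnight attachment in RPMI with 10% heat-inactivated FBS, PC3 cells at 500 per well receive compounds spanning 10 μM down to 1×10^−5 μM. Growth is assessed by luminescent viability read after 5 days.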
Background: In ATP-based viability assays light output follows the ATP content of the culture.
Take `O=C(NCc1cn2ccnc2cn1)c1ccc(S(=O)(=O)c2ccccc2)cc1` [Example 897, N-(imidazo[1,2-a]pyrazin-6-ylmethyl)-4-(phenylsulfonyl)benzamide]: the IC50 (usually the concentration that gives 50% inhibition) stood at 716 nM.

`O=C(Cc1cc(F)ccc1F)Nc1ccc(C(=O)NCc2ccn3ccnc3c2)cc1` [Example 890, 4-{[(2,5-difluorophenyl)acetyl]amino}-N-(imidazo[1,2-a]pyridin-7-ylmethyl)benzamide]: the IC50 stood at 31.8 nM.

Turning to `O=C(Cc1ccccc1F)Nc1ccc(C(=O)NCc2ccn3ccnc3c2)cc1` [Example 876, 4-{[(2-fluorophenyl)acetyl]amino}-N-(imidazo[1,2-a]pyridin-7-ylmethyl)benzamide], it took 47.7 nM to reach half-maximal inhibition (IC50). Under `O=C(NCc1ccn2ccnc2c1)c1ccc(C2CCN(C(=O)c3cncc4ccccc34)CC2)cc1` [Example 979, N-(imidazo[1,2-a]pyridin-7-ylmethyl)-4-[1-(isoquinolin-4-ylcarbonyl)piperidin-4-yl]benzamide] stands 75.7 nM; under `O=C(NCc1cn2ccnc2cn1)c1ccc(C2CCN(C(=O)c3ccc(F)cc3)CC2)s1` [Example 828, 5-[1-(4-fluorobenzoyl)piperidin-4-yl]-N-(imidazo[1,2-a]pyrazin-6-ylmethyl)thiophene-2-carboxamide], 6.44 nM. Under `O=C(NCc1cn2ccnc2cn1)c1ccc(C2CCN(C(=O)c3cc(F)ccc3F)CC2)s1` [Example 830, 5-[1-(2,5-difluorobenzoyl)piperidin-4-yl]-N-(imidazo[1,2-a]pyrazin-6-ylmethyl)thiophene-2-carboxamide] stands 0.269 nM; under `Cc1nc2ccc(C(=O)N3CCC(c4ccc(C(=O)NCc5ccn6ccnc6c5)cc4)CC3)cc2o1` [Example 980, N-(imidazo[1,2-a]pyridin-7-ylmethyl)-4-{1-[(2-methyl-1,3-benzoxazol-6-yl)carbonyl]piperidin-4-yl}benzamide], 29.4 nM. For `O=C(NCc1ccn2ccnc2c1)Nc1ccc(C2CCN(C(=O)c3ncccc3Cl)CC2)cc1` [Example 1019, 1-(4-{1-[(3-chloropyridin-2-yl)carbonyl]piperidin-4-yl}phenyl)-3-(imidazo[1,2-a]pyridin-7-ylmethyl)urea], 1.98 nM corresponded to half-maximal inhibition (IC50). Turning to `CC1(Cn2cc(-c3ccc(C(=O)NCc4ccn5ccnc5c4)s3)cn2)CCN(C(=O)CCOCCOCCOCCOCCN)CC1` [Example 1165, 5-(1-{[1-(15-amino-4,7,10,13-tetraoxapentadecan-1-oyl)-4-methylpiperidin-4-yl]methyl}-1H-pyrazol-4-yl)-N-(imidazo[1,2-a]pyridin-7-ylmethyl)thiophene-2-carboxamide], the IC50 amounted to 577 nM. The compound `O=C(NCc1ccn2ccnc2c1)Nc1ccc(C2CCN(C(=O)c3nc4c(s3)CCCC4)CC2)cc1` [Example 1053, 1-(imidazo[1,2-a]pyridin-7-ylmethyl)-3-{4-[1-(4,5,6,7-tetrahydro-1,3-benzothiazol-2-ylcarbonyl)piperidin-4-yl]phenyl}urea] gave an IC50 of 3.41 nM. The compound `COc1cccc(OC)c1C(=O)N1CCC(c2ccc(NC(=O)NCc3ccn4ccnc4c3)cc2)CC1` [Example 949, 1-{4-[1-(2,6-dimethoxybenzoyl)piperidin-4-yl]phenyl}-3-(imidazo[1,2-a]pyridin-7-ylmethyl)urea] registered an IC50 of 25.4 nM. Compound `O=C(Cc1ccn2ccnc2c1)Nc1ccc(C2CCN(C(=O)c3ccccc3)CC2)cc1F` [Example 1081, N-[4-(1-benzoylpiperidin-4-yl)-2-fluorophenyl]-2-(imidazo[1,2-a]pyridin-7-yl)acetamide] displayed an IC50 of 195 nM. Then `COc1ccc(C)cc1CC(=O)N1CCC(c2ccc(C(=O)NCc3ccn4ccnc4c3)cc2)CC1` [Example 936, N-(imidazo[1,2-a]pyridin-7-ylmethyl)-4-{1-[(2-methoxy-5-methylphenyl)acetyl]piperidin-4-yl}benzamide], with 32.5 nM; and `N#Cc1cc(F)c(C(=O)N2CCC(c3ccc(C(=O)NCc4ccn5ccnc5c4)cc3)CC2)c(F)c1` [Example 1095, 4-[1-(4-cyano-2,6-difluorobenzoyl)piperidin-4-yl]-N-(imidazo[1,2-a]pyridin-7-ylmethyl)benzamide], with 4.45 nM; and `CC(C)c1nc(C(=O)N2CCC(c3ccc(C(=O)NCc4ccn5ccnc5c4)cc3)CC2)co1` [Example 1113, N-(imidazo[1,2-a]pyridin-7-ylmethyl)-4-(1-{[2-(propan-2-yl)-1,3-oxazol-4-yl]carbonyl}piperidin-4-yl)benzamide], with 23.1 nM. Then `CC(C)(C)OC(=O)N1CCC(c2ccc(NC(=O)Cc3ccc4nccn4c3)cc2)CC1` [Example 862, tert-butyl 4-{4-[(imidazo[1,2-a]pyridin-6-ylacetyl)amino]phenyl}piperidine-1-carboxylate], with 0.78 nM. `CCOc1cc(C(=O)N2CCC(c3ccc(C(=O)NCc4ccn5ccnc5c4)cc3)CC2)ccn1` [Example 993, 4-{1-[(2-ethoxypyridin-4-yl)carbonyl]piperidin-4-yl}-N-(imidazo[1,2-a]pyridin-7-ylmethyl)benzamide] yielded an IC50 of 74 nM. For `C=CCn1nc(C)cc1C(=O)N1CCC(c2ccc(NC(=O)NCc3ccn4ccnc4c3)cc2)CC1` [Example 1056, 1-(imidazo[1,2-a]pyridin-7-ylmethyl)-3-[4-(1-{[3-methyl-1-(prop-2-en-1-yl)-1H-pyrazol-5-yl]carbonyl}piperidin-4-yl)phenyl]urea], it took 1.3 nM to reach half-maximal inhibition (IC50).

`COc1cccc(C)c1C(=O)N1CCC(c2ccc(C(=O)NCc3ccn4ccnc4c3)cc2)CC1` [Example 1009, N-(imidazo[1,2-a]pyridin-7-ylmethyl)-4-[1-(2-methoxy-6-methylbenzoyl)piperidin-4-yl]benzamide] had an IC50 of 1.2 nM. In turn, `CC(C)=CC(=O)N1CCC(c2ccc(NC(=O)NCc3ccn4ccnc4c3)cc2)CC1` [Example 939, 1-(imidazo[1,2-a]pyridin-7-ylmethyl)-3-{4-[1-(3-methylbut-2-enoyl)piperidin-4-yl]phenyl}urea] gave an IC50 greater than 10000 nM. On to `O=C(NCc1ccc2nccn2c1)c1ccc(S(=O)(=O)c2ccccc2)cc1` [Example 898, N-(imidazo[1,2-a]pyridin-6-ylmethyl)-4-(phenylsulfonyl)benzamide], for which the half-inhibitory concentration (IC50) was determined as 223 nM.

`O=C(NCc1ccn2ccnc2c1)Nc1ccc(C2CCN(C(=O)C3COc4ccccc4O3)CC2)cc1` (stereo not drawn) [Example 1023, 1-{4-[1-(2,3-dihydro-1,4-benzodioxin-2-ylcarbonyl)piperidin-4-yl]phenyl}-3-(imidazo[1,2-a]pyridin-7-ylmethyl)urea]: the IC50 is 6.87 nM.

With `C[C@H]1CCCC[C@H]1OCC(=O)N1CCC(c2ccc(C(=O)NCc3ccn4ccnc4c3)cc2)CC1` [Example 931, N-(imidazo[1,2-a]pyridin-7-ylmethyl)-4-[1-({[(1R,2S)-2-methylcyclohexyl]oxy}acetyl)piperidin-4-yl]benzamide], the IC50 was determined as 6.77 nM.

`CC(C)C(=O)N1CCC(c2ccc(C(=O)NCc3cn4ccnc4cn3)c(F)c2)CC1` [Example 1160, 2-fluoro-N-(imidazo[1,2-a]pyrazin-6-ylmethyl)-4-[1-(2-methylpropanoyl)piperidin-4-yl]benzamide] had an IC50 of 16.3 nM. Then `O=C(NCc1ccn2ccnc2c1)c1ccc(C2CCN(C(=O)COc3ccc(F)cc3)CC2)cc1` [Example 918, 4-{1-[(4-fluorophenoxy)acetyl]piperidin-4-yl}-N-(imidazo[1,2-a]pyridin-7-ylmethyl)benzamide], with 233 nM. On to `COc1ccccc1CC(=O)N1CCC(c2ccc(C(=O)NCc3ccn4ccnc4c3)cc2)CC1` [Example 921, N-(imidazo[1,2-a]pyridin-7-ylmethyl)-4-{1-[(2-methoxyphenyl)acetyl]piperidin-4-yl}benzamide], for which the midpoint of inhibition, the IC50, lay at 157 nM. In turn, `CC(C)Cc1cc(-c2ccc(C(=O)NCc3ccn4ccnc4c3)s2)n(C)n1` [Example 906, N-(imidazo[1,2-a]pyridin-7-ylmethyl)-5-[1-methyl-3-(2-methylpropyl)-1H-pyrazol-5-yl]thiophene-2-carboxamide] displayed an IC50 of 4.17 nM.

In the case of `CNCCOC12CC3(C)CC(C)(CC(Cn4ncc(-c5ccc(C(=O)NCc6ccn7ccnc7c6)s5)c4C)(C3)C1)C2` [Example 1157, 5-[1-({3,5-dimethyl-7-[2-(methylamino)ethoxy]tricyclo[3.3.1.1^3,7]dec-1-yl}methyl)-5-methyl-1H-pyrazol-4-yl]-N-(imidazo[1,2-a]pyridin-7-ylmethyl)thiophene-2-carboxamide], the IC50 was 53.1 nM.

Take `N#CC1(C(=O)N2CCC(c3ccc(NC(=O)NCc4ccn5ccnc5c4)cc3)CC2)CCCC1` [Example 1030, 1-(4-{1-[(1-cyanocyclopentyl)carbonyl]piperidin-4-yl}phenyl)-3-(imidazo[1,2-a]pyridin-7-ylmethyl)urea]: the IC50 stood at 2.04 nM. Then `O=C(NCc1ccn2ccnc2c1)c1ccc(C2CCN(C(=O)c3cc(F)ccc3F)CC2)s1` [Example 887, 5-[1-(2,5-difluorobenzoyl)piperidin-4-yl]-N-(imidazo[1,2-a]pyridin-7-ylmethyl)thiophene-2-carboxamide], with 0.214 nM. Consider `CC(C)(C)C(=O)N1CCC(c2ccc(NC(=O)NCc3ccn4ccnc4c3)c(F)c2)CC1` [Example 1070, 1-{4-[1-(2,2-dimethylpropanoyl)piperidin-4-yl]-2-fluorophenyl}-3-(imidazo[1,2-a]pyridin-7-ylmethyl)urea], for which the half-inhibitory concentration (IC50) amounted to 0.857 nM.

`N#Cc1ccc(CC(=O)N2CCC(c3ccc(NC(=O)NCc4ccn5ccnc5c4)cc3)CC2)cc1` [Example 1050, 1-(4-{1-[(4-cyanophenyl)acetyl]piperidin-4-yl}phenyl)-3-(imidazo[1,2-a]pyridin-7-ylmethyl)urea] yielded an IC50 of 23.4 nM. Then `CC(C)Cn1cc(-c2ccc(C(=O)NCc3cn4ccnc4cc3F)s2)cn1` [Example 1080, N-[(7-fluoroimidazo[1,2-a]pyridin-6-yl)methyl]-5-[1-(2-methylpropyl)-1H-pyrazol-4-yl]thiophene-2-carboxamide], with 3.41 nM.
